Reference: publication PMC4311985, “Molecular Surveillance of Antiviral Drug Resistance of Influenza A/H3N2 Virus in Singapore, 2009-2013” (PLoS ONE, 2015)

How the values were obtained:
[1] = system: NA with combination of G248R and K249E mutations; details: 'low levels' of resistance; cited from earlier work
[2] = molecular target: influenza A/H3N2 NA, wild-type (baseline) at loci 93, 155, 251 (Influenza A virus (H3N2), UniProt V9SU56); assay type: biochemical; details: wild-type (baseline) at each locus; 10 samples tested; mean; read-out: mean drug concentration required to inhibit 50% NA activity

| Compound | IC50 increase [1] [fold] | IC50 [2] [nM] |
| --- | --- | --- |
| CCOC(=O)C1=C[C@@H](OC(CC)CC)[C@H](NC(C)=O)[C@@H](N)C1 [Oseltamivir, oseltamivir] | < 10 |  |
| CCC(CC)[C@H](NC(C)=O)[C@@H]1[C@H](O)[C@@H](C(=O)O)C[C@H]1N=C(N)N [Peramivir, peramivir] |  | 0.2 ± 0.1 |
| CC(=O)N[C@H]1[C@H]([C@H](O)[C@H](O)CO)OC(C(=O)O)=C[C@@H]1N=C(N)N [Zanamivir, zanamivir] | < 10 |  |
